Data from US9321774B2, “Pyrrolobenzodiazepines” (MEDIMMUNE LIMITED, priority 2012, dated 2016).
≈ marks a conversion by molar mass, not a printed value. Read-outs that look alike come from different tables or passages of the source.

What was measured:
Assay in all cases: CLSI broth microplate assay, MIC
Type in all cases: cell-based
[1] = tested on: MRSA strain EMRSA-15; details: Staphylococcus aureus, read-out: Minimum inhibitory concentration (MIC mg/L) EMRSA-15
[2] = tested on: MRSA strain EMRSA-16; details: Staphylococcus aureus, read-out: Minimum inhibitory concentration (MIC mg/L) EMRSA-16
[3] = tested on: MRSA strain BB568; details: Staphylococcus aureus, read-out: Minimum inhibitory concentration (MIC mg/L) BB568
[4] = tested on: community-associated MRSA isolate USA300; details: Staphylococcus aureus, read-out: Minimum inhibitory concentration (MIC mg/L) USA300
[5] = tested on: S. aureus VISA strain Mu50; details: Staphylococcus aureus, read-out: Minimum inhibitory concentration (MIC mg/L) Mu50
[6] = tested on: E. faecalis VRE1; details: Enterococcus faecalis
[7] = tested on: E. faecium VRE10; details: Enterococcus faecium
[8] = EMRSA-15, Mueller-Hinton broth, 37° C.
[9] = Mu50, Mueller-Hinton broth, 37° C.
[10] = VRE1, read-out: Minimum inhibitory concentration (MIC mg/L) VRE1
[11] = VRE10, Mueller-Hinton broth, 37° C., read-out: Minimum inhibitory concentration (MIC mg/L) VRE10
[12] = EMRSA-16, Mueller-Hinton broth, 37° C.
[13] = BB568, Mueller-Hinton broth, 37° C.
[14] = VRE1, Mueller-Hinton broth, 37° C., read-out: Minimum inhibitory concentration (MIC mg/L) VRE1
[15] = VRE10, read-out: Minimum inhibitory concentration (MIC mg/L) VRE10

Row | SMILES | MIC [1, 8] | MIC [2] | MIC [3] | MIC [4] | MIC [5, 9] | MIC [6, 10] | MIC [7, 11] | MIC [2, 12] | MIC [3, 13] | MIC [6, 14] | MIC [1] | MIC [5] | MIC [7, 15]
1 | COc1cc2c(cc1OCCCC(=O)Nc1cc(C(=O)Nc3ccc4occc4c3)n(C)c1)N=C[C@@H]1CCCN1C2=O [Compound 26, (S)—N-(benzofuran-5-yl)-4-(4-((7-methoxy-5-oxo-2,3,5,11a-tetrahydro-1H-benzo[e]pyrrolo[1,2-a][1,4]diazepin-8-yl)oxy)butanamido)-1-methyl-1H-pyrrole-2-carboxamide] | 0.06 mg/L (≈ 0.105 µM) | 0.125 mg/L (≈ 0.219 µM) | 0.125 mg/L (≈ 0.219 µM) | 0.125 mg/L (≈ 0.219 µM) | 0.06 mg/L (≈ 0.105 µM) | 0.06 to 0.125 mg/L (≈ 0.105 to 0.219 µM) | 0.06 mg/L (≈ 0.105 µM) |  |  |  |  |  | 
2 | COc1cc2c(cc1OCCCC(=O)Nc1ccc(-c3cc(C(=O)Nc4ccc(OCCN5CCOCC5)cc4)n(C)c3)cc1)N=C[C@@H]1CCCN1C2=O [Compound 51, (S)-4-(4-(4-((7-methoxy-5-oxo-2,3,5,11a-tetrahydro-1H-benzo[e]pyrrolo[1,2-a][1,4]diazepin-8-yl)oxy)butanamido)phenyl)-1-methyl-N-(4-(2-morpholinoethoxyl)phenyl)-1H-pyrrole-2-carboxamide] | 2 mg/L (≈ 2.72 µM) |  |  | 2 mg/L (≈ 2.72 µM) | 1 mg/L (≈ 1.36 µM) |  | 1 mg/L (≈ 1.36 µM) | 2 mg/L (≈ 2.72 µM) | 2 mg/L (≈ 2.72 µM) | 0.5 mg/L (≈ 0.68 µM) |  |  | 
3 | COC(=O)c1ccc(-c2ccc(NC(=O)CCCOc3cc4c(cc3OC)C(=O)N3CCC[C@H]3C=N4)cc2)s1 [Compound 18, (S)-methyl 5-(4-(4-((7-methoxy-5-oxo-2,3,5,11a-tetrahydro-1H-benzo[e]pyrrolo[1,2-a][1,4]diazepin-8-yl)oxy)butanamido)phenyl)thiophene-2-carboxylate, reference compound] |  | > 32 mg/L | > 32 mg/L | 32 mg/L (≈ 58.4 µM) |  | > 32 mg/L |  |  |  |  | > 32 mg/L | > 32 mg/L | 16 mg/L (≈ 29.2 µM)
4 | COC(=O)c1cc(NC(=O)c2cc(NC(=O)c3cc(NC(=O)c4cc(NC(=O)c5cc(-c6ccc(NC(=O)CCCOc7cc8c(cc7OC)C(=O)N7CCC[C@H]7C=N8)cc6)cn5C)cn4C)cn3C)cn2C)cn1C [Compound 59] |  | 16 mg/L (≈ 15.5 µM) | 16 mg/L (≈ 15.5 µM) | 16 to 32 mg/L (≈ 15.5 to 31 µM) |  | 32 mg/L (≈ 31 µM) |  |  |  |  | 2 mg/L (≈ 1.94 µM) | 4 mg/L (≈ 3.87 µM) | 4 mg/L (≈ 3.87 µM)
5 | COc1cc2c(cc1OCCCC(=O)Nc1ccc(-c3cc(C(=O)Nc4ccc(N5CCOCC5)nc4)n(C)c3)cc1)N=C[C@@H]1CCCN1C2=O [Compound 53, (S)-4-(4-(4-((7-methoxy-5-oxo-2,3,5,11a-tetrahydro-1H-benzo[e]pyrrolo[1,2-a][1,4]diazepin-8-yl)oxy)butanamido)phenyl)-1-methyl-N-(6-morpholinopyridin-3-yl)-1H-pyrrole-2-carboxamide] |  | 2 to 4 mg/L (≈ 2.89 to 5.78 µM) | 4 mg/L (≈ 5.78 µM) | 4 mg/L (≈ 5.78 µM) |  | 1 mg/L (≈ 1.45 µM) |  |  |  |  | 1 mg/L (≈ 1.45 µM) | 2 mg/L (≈ 2.89 µM) | 0.5 mg/L (≈ 0.723 µM)
6 | COc1cc2c(cc1OCCCC(=O)Nc1ccc(-c3cc(C(=O)Nc4ccc(N5CCOCC5)cc4)n(C)c3)cc1)N=C[C@@H]1CCCN1C2=O [Compound 49, (S)-4-(4-(4-((7-methoxy-5-oxo-2,3,5,11a-tetrahydro-1H-benzo[e]pyrrolo[1,2-a][1,4]diazepin-8-yl)oxy)butanamido)phenyl)-1-methyl-N-(4-morpholinophenyl)-1H-pyrrole-2-carboxamide] |  | 2 mg/L (≈ 2.9 µM) | 2 mg/L (≈ 2.9 µM) | 2 mg/L (≈ 2.9 µM) |  | 0.5 mg/L (≈ 0.724 µM) |  |  |  |  | 2 mg/L (≈ 2.9 µM) | 1 mg/L (≈ 1.45 µM) | 0.5 to 1 mg/L (≈ 0.724 to 1.45 µM)
7 | COC(=O)c1cc(NC(=O)c2cc(-c3ccc(NC(=O)CCCOc4cc5c(cc4OC)C(=O)N4CCC[C@H]4C=N5)cc3)co2)cn1C [Compound 54, (S)-methyl 4-(4-(4-(4-((7-methoxy-5-oxo-2,3,5,11a-tetrahydro-1H-benzo[e]pyrrolo[1,2-a][1,4]diazepin-8-yl)oxy)butanamido)phenyl)furan-2-carboxamido)-1-methyl-1H-pyrrole-2-carboxylate] | < 0.03 mg/L |  |  | 0.06 mg/L (≈ 0.0918 µM) | 0.03 mg/L (≈ 0.0459 µM) |  | < 0.03 mg/L | 0.06 mg/L (≈ 0.0918 µM) | 0.125 mg/L (≈ 0.191 µM) | 0.06 mg/L (≈ 0.0918 µM) |  |  | 
8 | COc1cc2c(cc1OCCCC(=O)Nc1cc(C(=O)Nc3ccc(N4CCOCC4)nc3)n(C)c1)N=C[C@@H]1CCCN1C2=O [Compound 31, (S)-4-(4-((7-methoxy-5-oxo-2,3,5,11a-tetrahydro-1H-benzo[e]pyrrolo[1,2-a][1,4]diazepin-8-yl)oxy)butanamido)-1-methyl-N-(6-morpholinopyridin-3-yl)-1H-pyrrole-2-carboxamide] |  | 4 mg/L (≈ 6.5 µM) | 4 mg/L (≈ 6.5 µM) | 1 mg/L (≈ 1.62 µM) |  | 1 mg/L (≈ 1.62 µM) |  |  |  |  | 0.5 mg/L (≈ 0.812 µM) |  | 0.5 mg/L (≈ 0.812 µM)
9 | COc1cc2c(cc1OCCCC(=O)Nc1ccc(-c3cc(C(=O)NCc4ccc(OCCN5CCOCC5)cc4)n(C)c3)cc1)N=C[C@@H]1CCCN1C2=O [Compound 52, (S)-4-(4-(4-((7-methoxy-5-oxo-2,3,5,11a-tetrahydro-1H-benzo[e]pyrrolo[1,2-a][1,4]diazepin-8-yl)oxy)butanamido)phenyl)-1-methyl-N-(4-(2-morpholinoethoxyl)benzyl)-1H-pyrrole-2-carboxamide] |  | 1 to 2 mg/L (≈ 1.34 to 2.67 µM) | 4 mg/L (≈ 5.34 µM) | 4 mg/L (≈ 5.34 µM) |  | 2 mg/L (≈ 2.67 µM) |  |  |  |  | 4 mg/L (≈ 5.34 µM) | 2 mg/L (≈ 2.67 µM) | 1 mg/L (≈ 1.34 µM)
10 | COC(=O)c1cc2cc(NC(=O)c3cc(NC(=O)CCCOc4cc5c(cc4OC)C(=O)N4CCC[C@H]4C=N5)cn3C)ccc2s1 [Compound 28, (S)-methyl 5-(4-(4-((7-methoxy-5-oxo-2,3,5,11a-tetrahydro-1H-benzo[e]pyrrolo[1,2-a][1,4]diazepin-8-yl)oxy)butanamido)-1-methyl-1H-pyrrole-2-carboxamido)benzo[b]thiophene-2-carboxylate] |  | 0.125 mg/L (≈ 0.194 µM) | 0.125 mg/L (≈ 0.194 µM) | 0.06 mg/L (≈ 0.0932 µM) |  | 0.06 mg/L (≈ 0.0932 µM) |  |  |  |  | 0.06 mg/L (≈ 0.0932 µM) |  | 0.06 mg/L (≈ 0.0932 µM)
11 | COc1cc2c(cc1OCCCC(=O)Nc1cc(C(=O)Nc3ccc(N4CCOCC4)cc3)n(C)c1)N=C[C@@H]1CCCN1C2=O [Compound 30, (S)-4-(4-((7-methoxy-5-oxo-2,3,5,11a-tetrahydro-1H-benzo[e]pyrrolo[1,2-a][1,4]diazepin-8-yl)oxy)butanamido)-1-methyl-N-(4-morpholinophenyl)-1H-pyrrole-2-carboxamide] | 0.5 mg/L (≈ 0.813 µM) |  |  | 0.5 mg/L (≈ 0.813 µM) |  |  | 0.5 mg/L (≈ 0.813 µM) | 2 mg/L (≈ 3.25 µM) | 2 mg/L (≈ 3.25 µM) | 1 mg/L (≈ 1.63 µM) |  |  | 
12 | COc1cc2c(cc1OCCCC(=O)Nc1cc(C(=O)Nc3ccc4sccc4c3)n(C)c1)N=C[C@@H]1CCCN1C2=O [Compound 27, (S)—N-(benzo[b]thiophen-5-yl)-4-(4-((7-methoxy-5-oxo-2,3,5,11a-tetrahydro-1H-benzo[e]pyrrolo[1,2-a][1,4]diazepin-8-yl)oxy)butanamido)-1-methyl-1H-pyrrole-2-carboxamide] | 0.03 mg/L (≈ 0.0512 µM) |  |  | 0.06 to 0.125 mg/L (≈ 0.102 to 0.213 µM) | < 0.03 mg/L |  | 0.03 mg/L (≈ 0.0512 µM) | 0.125 mg/L (≈ 0.213 µM) | 0.125 mg/L (≈ 0.213 µM) | 0.125 mg/L (≈ 0.213 µM) |  |  | 
13 | COC(=O)c1cc2cc(NC(=O)c3nc(NC(=O)CCCOc4cc5c(cc4OC)C(=O)N4CCC[C@H]4C=N5)cn3C)ccc2s1 [Compound 35, (S)-methyl 5-(4-(4-((7-methoxy-5-oxo-2,3,5,11a-tetrahydro-1H-benzo[e]pyrrolo[1,2-a][1,4]diazepin-8-yl)oxy)butanamido)-1-methyl-1H-imidazole-2-carboxamido)benzo[b]thiophene-2-carboxylate] |  | 0.06 mg/L (≈ 0.0931 µM) | 0.06 mg/L (≈ 0.0931 µM) | 0.06 mg/L (≈ 0.0931 µM) |  | 0.06 mg/L (≈ 0.0931 µM) |  |  |  |  | 0.06 mg/L (≈ 0.0931 µM) |  | 0.06 mg/L (≈ 0.0931 µM)
14 | COc1cc2c(cc1OCCCC(=O)Nc1cn(C)c(C(=O)Nc3ccc(N4CCOCC4)nc3)n1)N=C[C@@H]1CCCN1C2=O [Compound 40, (S)-4-(4-((7-methoxy-5-oxo-2,3,5,11a-tetrahydro-1H-benzo[e]pyrrolo[1,2-a][1,4]diazepin-8-yl)oxy)butanamido)-1-methyl-N-(6-morpholinopyridin-3-yl)-1H-imidazole-2-carboxamide] |  | 0.5 mg/L (≈ 0.811 µM) | 0.5 mg/L (≈ 0.811 µM) | 0.125 mg/L (≈ 0.203 µM) |  | 0.25 mg/L (≈ 0.405 µM) |  |  |  |  | 0.125 mg/L (≈ 0.203 µM) |  | 0.125 mg/L (≈ 0.203 µM)
15 | COc1cc2c(cc1OCCCC(=O)Nc1cn(C)c(C(=O)Nc3ccc(N4CCOCC4)cc3)n1)N=C[C@@H]1CCCN1C2=O [Compound 37, (S)-4-(4-((7-methoxy-5-oxo-2,3,5,11a-tetrahydro-1H-benzo[e]pyrrolo[1,2-a][1,4]diazepin-8-yl)oxy)butanamido)-1-methyl-N-(4-morpholinophenyl)-1H-imidazole-2-carboxamide] |  | 0.5 mg/L (≈ 0.812 µM) | 0.5 mg/L (≈ 0.812 µM) | 0.125 mg/L (≈ 0.203 µM) |  | 0.25 mg/L (≈ 0.406 µM) |  |  |  |  | 0.125 mg/L (≈ 0.203 µM) |  | 0.125 mg/L (≈ 0.203 µM)
